# Assays:
# [1] = tested on: SW480; assay: cells; type: cell-based; settings: basal; for IC50 / Basal_Viability ATP SW480 IC50/EC50: assay number 24; for IC50: read-out: Basal_Viability ATP SW480 summarized IC50
# [2] = tested on: SNU-C1; assay: cells; type: cell-based; settings: basal; for IC50 / Basal_Viability ATP SNU-C1 IC50/EC50: assay number 30; for IC50: read-out: Basal_Viability ATP SNU-C1 summarized IC50
# [3] = tested on: HCT116 cells treated with a GSK3β inhibitor; assay: cells; type: cell-based; settings: for IC50/EC50, GSK3b inh pretreated_Viability ATP HCT116 (assay number 26): GSK3b inh pretreated
# [4] = tested on: HT-29; assay: cells; type: cell-based; settings: basal; for IC50 / Basal_Viability ATP HT-29 IC50/EC50: assay number 28; for IC50: read-out: Basal_Viability ATP HT-29 summarized IC50
# [5] = tested on: HCT116; assay: cells; type: cell-based; settings: basal; for IC50 / Basal_Viability ATP HCT116 IC50/EC50: assay number 25; for IC50: read-out: Basal_Viability ATP HCT116 summarized IC50
# [6] = tested on: Colo320; assay: cells; type: cell-based; settings: basal; for IC50 / Basal_Viability ATP Colo 320 IC50/EC50: assay number 27; for IC50: read-out: Basal_Viability ATP Colo 320 summarized IC50
# [7] = tested on: DLD-1; assay: cells; type: cell-based; settings: basal; for IC50 / Basal_Viability ATP DLD-1 IC50/EC50: assay number 23; for IC50: read-out: Basal_Viability ATP DLD-1 summarized IC50
# [8] = tested on: RKO; assay: cells; type: cell-based; settings: basal; for IC50 / Basal_Viability ATP RKO IC50/EC50: assay number 29; for IC50: read-out: Basal_Viability ATP RKO summarized IC50
# [9] = tested on: ECFC/ADSC co-culture cell nuclei number; settings: read-out: VEGF_ADSC\ECFC Angio Hoechst NucArea summarized IC50
# [10] = tested on: endothelial tube formation in co-cultures of ECFCs and ADSCs treated with VEGF; assay: cells; type: cell-based, human; settings: read-out: VEGF_ADSC\ECFC Angio CD31 TubeArea summarized IC50
# [11] = assay number 26, GSK3b inhibitor pretreated
structure (smiles),measurement,setting,value
O=C(Nc1ccc(Cl)cc1)Nc1ccc(Cl)c(C(F)(F)F)c1 [NCGC00185743-02],IC50,[1],9 nM
same,IC50,[2],9 nM
same,IC50,"[3]; assay number 26, GSK3b inhibitor pretreated, read-out: GSK3b inh pretreated_Viability ATP HCT116 summarized IC50",3 nM
same,IC50,[4],1 nM
same,IC50,[5],3 nM
same,IC50,[6],3 nM
same,IC50,[7],27 nM
same,IC50,[8],3 nM
N#CC(C#N)=Cc1ccc(O)c(O)c1 [NCGC00016043-08],"IC50/EC50, Basal_Viability ATP SW480 (assay number 24)",[1],> 20000 nM
same,"IC50/EC50, Basal_Viability ATP SNU-C1 (assay number 30)",[2],> 20000 nM
same,"IC50/EC50, GSK3b inh pretreated_Viability ATP HCT116 (assay number 26)",[3],> 20000 nM
same,"IC50/EC50, Basal_Viability ATP HT-29 (assay number 28)",[4],> 20000 nM
same,"IC50/EC50, Basal_Viability ATP HCT116 (assay number 25)",[5],> 20000 nM
same,"IC50/EC50, Basal_Viability ATP Colo 320 (assay number 27)",[6],6740.6 nM
same,"IC50/EC50, Basal_Viability ATP DLD-1 (assay number 23)",[7],> 20000 nM
same,"IC50/EC50, Basal_Viability ATP RKO (assay number 29)",[8],3775.6 nM
CCCCCCCCCCCCCCCCC(C(=O)O)C(O)(CC(=O)O)C(=O)O (stereo not drawn) [NCGC00167547-02],Basal_Viability ATP SW480 IC50/EC50,[1],1195.2 nM
same,Basal_Viability ATP SNU-C1 IC50/EC50,[2],1361.3 nM
same,GSK3b inh pretreated_Viability ATP HCT116 IC50/EC50,[3]; [11],4338.2 nM
same,Basal_Viability ATP HT-29 IC50/EC50,[4],4099.6 nM
same,Basal_Viability ATP HCT116 IC50/EC50,[5],8684.7 nM
same,Basal_Viability ATP Colo 320 IC50/EC50,[6],1362.1 nM
same,Basal_Viability ATP DLD-1 IC50/EC50,[7],4283.2 nM
same,Basal_Viability ATP RKO IC50/EC50,[8],3482.2 nM
Nc1ccc(C(=O)Nc2ccccc2N)cc1 [NCGC00160373-02],"IC50/EC50, Basal_Viability ATP SW480 (assay number 24)",[1],> 20000 nM
same,"IC50/EC50, Basal_Viability ATP SNU-C1 (assay number 30)",[2],> 20000 nM
same,"IC50/EC50, GSK3b inh pretreated_Viability ATP HCT116 (assay number 26)",[3],12853.6 nM
same,"IC50/EC50, Basal_Viability ATP HT-29 (assay number 28)",[4],> 20000 nM
same,"IC50/EC50, Basal_Viability ATP HCT116 (assay number 25)",[5],> 6666.7 nM
same,"IC50/EC50, Basal_Viability ATP Colo 320 (assay number 27)",[6],> 20000 nM
same,"IC50/EC50, Basal_Viability ATP DLD-1 (assay number 23)",[7],> 20000 nM
same,"IC50/EC50, Basal_Viability ATP RKO (assay number 29)",[8],> 20000 nM
CC(=O)[O][Hg][c]1ccccc1 [NCGC00091050-09],IC50,[1],543 nM
same,IC50,[2],192 nM
same,IC50,[4],799 nM
same,IC50,[5],2800 nM
same,IC50,[6],1300 nM
same,IC50,[7],736 nM
same,IC50,[9],883 nM
same,IC50,[8],1200 nM
same,IC50,[10],530 nM
CCCCCCCCCCCCCCCCOP(=O)([O-])OCC[N+](C)(C)C [NCGC00095169-05],Basal_Viability ATP SW480 IC50/EC50,[1],478.2 nM
same,Basal_Viability ATP SNU-C1 IC50/EC50,[2],964.9 nM
same,GSK3b inh pretreated_Viability ATP HCT116 IC50/EC50,[3]; [11],1476 nM
same,Basal_Viability ATP HT-29 IC50/EC50,[4],1955 nM
same,Basal_Viability ATP HCT116 IC50/EC50,[5],3393 nM
same,Basal_Viability ATP Colo 320 IC50/EC50,[6],1490 nM
same,Basal_Viability ATP DLD-1 IC50/EC50,[7],1230 nM
same,Basal_Viability ATP RKO IC50/EC50,[8],437.2 nM
Cc1cc2nc3c(=O)[nH]c(=O)nc-3n(C[C@H](O)[C@H](O)[C@H](O)COP(=O)([O-])OP(=O)([O-])OC[C@H]3O[C@@H](n4cnc5c(N)ncnc54)[C@H](O)[C@H]3O)c2cc1C.O.[Na+].[Na+] [NCGC00344578-01],Basal_Viability ATP SW480 IC50/EC50,[1],> 20000 nM
same,Basal_Viability ATP SNU-C1 IC50/EC50,[2],> 20000 nM
same,GSK3b inh pretreated_Viability ATP HCT116 IC50/EC50,[3]; [11],> 20000 nM
same,Basal_Viability ATP HT-29 IC50/EC50,[4],> 20000 nM
same,Basal_Viability ATP HCT116 IC50/EC50,[5],> 20000 nM
same,Basal_Viability ATP Colo 320 IC50/EC50,[6],> 20000 nM
same,Basal_Viability ATP DLD-1 IC50/EC50,[7],> 20000 nM
same,Basal_Viability ATP RKO IC50/EC50,[8],> 20000 nM

# From article PMC4503722, “Novel Phenotypic Outcomes Identified for a Public Collection of Approved Drugs from a Publicly Accessible Panel of Assays” (PLoS ONE, 2015)
